In ChEMBL document CHEMBL3526075, “Metabolism of the active metabolite of quetiapine, N-desalkylquetiapine in vitro” (Drug Metab Dispos, 2012):

Columns and labels:
Assay type in all cases: ADME
Liver microsome [1] = assay: Retention time in human liver microsomes after 30 to 60 mins by mass spectroscopy
Liver microsome [2] = assay: Drug metabolism in human liver microsomes treated with N-desalkylquetiapine at 3 uM after 30 mins by mass spectroscopy; details: 0.5 h
Liver microsome [3] = assay: Drug metabolism in human liver microsomes treated with N-desalkylquetiapine at 3 uM after 30 mins by mass spectroscopy in presence of CYP2D6 inhibitor quinidine; details: 0.5 h
Liver microsome [4] = assay: Drug metabolism in human liver microsomes treated with N-desalkylquetiapine at 3 uM after 30 mins by mass spectroscopy in presence of CYP3A4 inhibitor ketoconazole; details: 0.5 h
Liver microsome [5] = assay: Drug metabolism in human liver microsomes treated with N-desalkylquetiapine at 3 uM after 30 mins by mass spectroscopy in presence of CYP1A2 inhibitor fluvoxamine; details: 0.5 h
Liver microsome [6] = assay: Drug metabolism in human liver microsomes treated with N-desalkylquetiapine at 3 uM after 30 mins by mass spectroscopy in presence of CYP2C19 inhibitor benzylnirvanol; details: 0.5 h
Liver microsome [7] = assay: Drug metabolism in human liver microsomes treated with N-desalkylquetiapine at 3 uM after 30 mins by mass spectroscopy in presence of CYP2C9 inhibitor sulfaphenazole; details: 0.5 h
cytochrome P450 = assay: Activity of cytochrome P450 in human liver microsomes by LC-MS analysis
[8] = Activity of cytochrome P450 in human liver microsomes assessed as 7-hydroxy-N-desalkylquetiapine formation measured as substrate inhibition constant by LC-MS analysis
[9] = Activity of cytochrome P450 in human liver microsomes assessed as metabolite M3 formation by LC-MS analysis
Cytochrome P450 2D6 [10] = biological target: T1, Cytochrome P450 2D6 (Homo sapiens, UniProt P10635); assay: Activity of human CYP2D6 expressed in supersomes co-expressing cytochrome P450 reductase assessed as metabolite M3 formation after 60 mins by LC-MS analysis; details: recombinant enzyme, 1 h
T1 sequence (P10635 whole entry): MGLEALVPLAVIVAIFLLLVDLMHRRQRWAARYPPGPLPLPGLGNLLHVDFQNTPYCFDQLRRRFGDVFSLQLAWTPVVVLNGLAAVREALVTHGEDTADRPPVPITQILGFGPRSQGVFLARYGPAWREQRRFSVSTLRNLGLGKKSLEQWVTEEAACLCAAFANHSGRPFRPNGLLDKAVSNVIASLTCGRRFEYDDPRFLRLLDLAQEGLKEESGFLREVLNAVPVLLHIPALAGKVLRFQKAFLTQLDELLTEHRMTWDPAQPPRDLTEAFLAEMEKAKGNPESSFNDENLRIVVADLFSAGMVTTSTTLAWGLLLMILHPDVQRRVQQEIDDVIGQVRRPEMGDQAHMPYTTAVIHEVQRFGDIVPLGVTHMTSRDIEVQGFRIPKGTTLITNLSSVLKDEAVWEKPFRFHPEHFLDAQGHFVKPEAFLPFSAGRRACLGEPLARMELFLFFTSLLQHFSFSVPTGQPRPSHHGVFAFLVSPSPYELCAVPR

Cytochrome P450 3A4 [11] = biological target: T2, Cytochrome P450 3A4 (Homo sapiens, UniProt P08684); assay: Activity of human CYP3A4 expressed in supersomes co-expressing cytochrome P450 reductase assessed as metabolite M3 formation after 60 mins by LC-MS analysis; details: recombinant enzyme, 1 h
T2 sequence (P08684 whole entry): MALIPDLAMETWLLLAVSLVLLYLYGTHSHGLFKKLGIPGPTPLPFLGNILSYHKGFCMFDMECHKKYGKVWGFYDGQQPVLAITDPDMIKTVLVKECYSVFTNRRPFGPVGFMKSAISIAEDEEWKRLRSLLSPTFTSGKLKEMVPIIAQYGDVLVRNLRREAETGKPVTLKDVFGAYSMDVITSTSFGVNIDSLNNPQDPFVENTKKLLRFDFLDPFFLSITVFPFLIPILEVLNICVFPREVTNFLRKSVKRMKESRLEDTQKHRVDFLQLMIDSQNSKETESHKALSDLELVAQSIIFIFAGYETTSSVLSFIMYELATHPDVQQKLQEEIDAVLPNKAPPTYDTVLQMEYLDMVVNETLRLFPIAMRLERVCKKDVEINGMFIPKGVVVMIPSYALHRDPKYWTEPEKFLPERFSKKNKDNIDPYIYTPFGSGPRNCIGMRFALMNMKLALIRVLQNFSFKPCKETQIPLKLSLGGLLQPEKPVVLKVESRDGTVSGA

Cytochrome P450 2D6 [12] = biological target: T1, Cytochrome P450 2D6; assay: Activity of human CYP2D6 expressed in supersomes co-expressing cytochrome P450 reductase assessed as intrinsic clearance per pmol protein by LC-MS analysis; details: recombinant enzyme
CYP3A4 = CYP3A4 (Homo sapiens, UniProt P08684); assay: Activity of human CYP3A4 expressed in xenosomes assessed as substrate depletion after 60 mins by LC-MS analysis; details: recombinant CYP3A4 expressed in xenosomes, read-out: Drug metabolism
Chain of CYP3A4 (P08684 whole entry): as above

CYP2D6 = CYP2D6 (Homo sapiens, UniProt P10635); assay: Activity of human CYP2D6 expressed in supersomes co-expressing cytochrome P450 reductase assessed as substrate depletion after 60 mins by LC-MS analysis; details: read-out: Drug metabolism
Chain of CYP2D6 (P10635 whole entry): as the sequence (P10635 whole entry) above

Liver microsome [13] = assay: Drug metabolism in human liver microsomes assessed as 7-hydroxy-N-desalkylquetiapine formation at 3 uM after 30 mins by mass spectroscopy; details: 0.5 h
Cytochrome P450 3A4 [14] = biological target: T2, Cytochrome P450 3A4; assay: Activity of human CYP3A4 expressed in supersomes co-expressing cytochrome P450 reductase assessed as N-desalkylquetiapine sulfoxide formation after 60 mins by LC-MS analysis; details: recombinant enzyme, 1 h
Cytochrome P450 2D6 [15] = biological target: T1, Cytochrome P450 2D6; assay: Activity of human CYP2D6 expressed in supersomes co-expressing cytochrome P450 reductase assessed as N-desalkylquetiapine sulfoxide formation after 60 mins by LC-MS analysis; details: recombinant enzyme, 1 h
Cytochrome P450 2D6 [16] = biological target: T1, Cytochrome P450 2D6; assay: Activity of human CYP2D6 expressed in supersomes co-expressing cytochrome P450 reductase assessed as 7-hydroxy-N-desalkylquetiapine formation after 60 mins by LC-MS analysis; details: recombinant enzyme, 1 h
Cytochrome P450 3A4 [17] = biological target: T2, Cytochrome P450 3A4; assay: Activity of human CYP3A4 expressed in xenosomes assessed as intrinsic clearance per pmol protein by LC-MS analysis
Liver microsome [18] = assay: Drug metabolism in human liver microsomes assessed as 7-hydroxy-N-desalkylquetiapine formation at 3 uM after 30 mins by mass spectroscopy in presence of CYP2D6 inhibitor quinidine; details: 0.5 h
Liver microsome [19] = assay: Drug metabolism in human liver microsomes assessed as N-desalkylquetiapine sulfoxide formation at 3 uM after 30 mins by mass spectroscopy in presence of CYP3A4 inhibitor ketoconazole; details: 0.5 h
Liver microsome [20] = assay: Drug metabolism in human liver microsomes assessed as 7-hydroxy-N-desalkylquetiapine formation at 3 uM after 30 mins by mass spectroscopy in presence of CYP1A2 inhibitor fluvoxamine; details: 0.5 h
Liver microsome [21] = assay: Drug metabolism in human liver microsomes assessed as N-desalkylquetiapine sulfoxide formation at 3 uM after 30 mins by mass spectroscopy in presence of CYP2C19 inhibitor benzylnirvanol; details: 0.5 h
Liver microsome [22] = assay: Drug metabolism in human liver microsomes assessed as N-desalkylquetiapine sulfoxide formation at 3 uM after 30 mins by mass spectroscopy in presence of CYP2C9 inhibitor sulfaphenazole; details: 0.5 h
Liver microsome [23] = assay: Drug metabolism in human liver microsomes assessed as 7-hydroxy-N-desalkylquetiapine formation at 3 uM after 30 mins by mass spectroscopy in presence of CYP2C19 inhibitor benzylnirvanol; details: 0.5 h
Liver microsome [24] = assay: Drug metabolism in human liver microsomes assessed as 7-hydroxy-N-desalkylquetiapine formation at 3 uM after 30 mins by mass spectroscopy in presence of CYP2C9 inhibitor sulfaphenazole; details: 0.5 h
Liver microsome [25] = assay: Drug metabolism in human liver microsomes assessed as N-desalkylquetiapine sulfoxide formation at 3 uM after 30 mins by mass spectroscopy; details: 0.5 h
[26] = Activity of cytochrome P450 in human liver microsomes assessed as N-desalkylquetiapine sulfoxide formation measured as high-affinity/low-capacity binding constant by LC-MS analysis
[27] = Activity of cytochrome P450 in human liver microsomes assessed as N-desalkylquetiapine sulfoxide formation measured as low-affinity/high-capacity binding constant by LC-MS analysis

In the case of `[O-][S+]1c2ccccc2N=C(N2CCNCC2)c2ccccc21` (configuration not stated), the Retention_time (Liver microsome [1]) is reported as 3.98 min, the Drug metabolism (Liver microsome [2]) is reported as “metabolite_detected” and the Drug metabolism (Liver microsome [3]) is reported as “metabolite_not_detected”. The Drug metabolism (Liver microsome [4]) was “metabolite_not_detected”, the Drug metabolism (Liver microsome [5]) was “metabolite_detected” and the Drug metabolism (Liver microsome [6]) was “metabolite_detected”. For the same compound, the Drug metabolism (Liver microsome [7]) was “metabolite_detected”.

Compound `c1ccc2c(c1)N=C(N1CCNCC1)c1ccccc1S2` has a Km (cytochrome P450) of 110 µM, a Kis [8] of 824 µM and a Km [9] of 199 µM. For the same compound, the Drug metabolism (Cytochrome P450 2D6 [10]) was “metabolite_detected”, the Drug metabolism (Cytochrome P450 3A4 [11]) was “metabolite_detected” and the CL (Cytochrome P450 2D6 [12]) was 3 µL/min. For the same compound, the metabolised at 1 h (CYP3A4) was 6%, the metabolised at 1 h (CYP2D6) was 47% and the Drug metabolism (Liver microsome [13]) was “metabolite_detected”. The Drug metabolism (Cytochrome P450 3A4 [14]) was “metabolite_detected”, the Drug metabolism (Cytochrome P450 2D6 [15]) was “metabolite_detected” and the Drug metabolism (Cytochrome P450 2D6 [16]) was “metabolite_detected”. The CL (Cytochrome P450 3A4 [17]) was 0.25 µL/min, the Drug metabolism (Liver microsome [18]) was “metabolite_not_detected” and the Drug metabolism (Liver microsome [19]) was “metabolite_not_detected”. The Drug metabolism (Liver microsome [20]) was “metabolite_detected”, the Drug metabolism (Liver microsome [21]) was “metabolite_detected” and the Drug metabolism (Liver microsome [22]) was “metabolite_detected”. For the same compound, the Drug metabolism (Liver microsome [23]) was “metabolite_detected”, the Drug metabolism (Liver microsome [24]) was “metabolite_detected” and the Drug metabolism (Liver microsome [25]) was “metabolite_detected”. The Km [26] was 15 µM and the Km [27] was 459 µM.

For `Oc1ccc2c(c1)Sc1ccccc1C(N1CCNCC1)=N2`, the Retention_time (Liver microsome [1]) was 4.31 min, the Drug metabolism (Liver microsome [2]) was “metabolite_detected” and the Drug metabolism (Liver microsome [3]) was “metabolite_not_detected”. For the same compound, the Drug metabolism (Liver microsome [4]) was “metabolite_not_detected”, the Drug metabolism (Liver microsome [5]) was “metabolite_detected” and the Drug metabolism (Liver microsome [6]) was “metabolite_detected”. The Drug metabolism (Liver microsome [7]) was “metabolite_detected”.
